Measurements from patent US20140128747A1, “ASSESSING E[…] USING A BLOOD PRESSURE CUFF” (THE REGENTS OF THE UNIVERSITY OF CALIFORNIA, priority 2011, published 2014).
Entries after “also recorded” stand apart in the source; their conditions may differ.

Legend:
NO synthase = assay: Cuff single pulse waveform after endothelial stimulation with NO synthase blocked; assay type: in vivo, human; conditions: cuff inflated to 70 mmHg, FIG. 3
From the text: Both the amplitude and slope of the rising edge of the pulse increase markedly after endothelial stimulation.
In an artery with intact endothelial function, both pulse height (maximal cross-sectional arterial area) and compliance (maximum slope of the rising edge) increase markedly over baseline. […] FIG. 4 illustrates how a five minute cuff occlusion and the ensuring reactive hyperemia lead to major increases in area change per pulse and the maximum derivative of the area per pulse. Both metrics return to baseline levels after 20 minutes. FIG. 5 confirms the repeatability of the protocol by illustrating the effects of a series of two cuff occlusion periods. We see from FIG. 6 that only a small slow drift in the measured quantities occurs when no reactive hyperemic stimulus is applied.
A stimulus is then applied to the subject. Any of a number of stimuli expected to alter endothelial function are contemplated. Such stimuli include, for example, occlusion of blood flow, and/or application of one or more drugs to the subject. Illustrative drugs include, for example, drugs that act as NO agonists (e.g. acetylcholine), β2-adrenergic agonists such as albuterol, acoustic/mechanical tissue vibration, transcutaneous low frequency ultrasound (see, e.g., Iida et al. (2006) J. Amer. Coll. Cardiol., 48(3): 532-537), and the like. […]

human subjects = assay: Blood pressure cuff measurement of pulse amplitude (arterial area) and compliance response to sublingual nitroglycerin; assay type: in vivo; conditions: 0.4 mg sublingual NG, FIG. 10, all cases where NG was administered
From the text: We contend that such studies are unnecessary in order to make a determination that a method is effective in assessing endothelial function. Physical methods for arterial EF evaluation typically measure changes in the material properties of the artery. […] A major advantage of this method is that response to NG is intact even in individuals with endothelial dysfunction, so there is no need to perform a correlation analysis between two measurements.
We examined three individuals in the age-range 28-38. All subjects had Framingham risk scores of 1% or less, and had no history of cardiovascular disease. Each individual was assessed at least three times before and after RH induced by five minutes of suprasystolic cuff occlusion. […] Sensitivity to a 0.4 mg dose of sublingual NG was assessed three times in two individuals.
Sensitivity to a 0.4 mg dose of sublingual NG was assessed three times in two individuals.
We studied a single quantity relating to the recorded pressure data: the pulse amplitude, which we posit is proportional to the arterial area. During the post stimulus interval, pressure data from the cuff were recorded approximately every 80 seconds, for a period of 30 seconds. During each recording interval, the cuff was inflated to 70 mmHg, which was always below the measured diastolic pressure of the subject. […]

SMILES	effect on increase of pulse amplitude (height) and slope of rising edge after endothelial stimulation (NO synthase)	increase in relative change in area (human subjects)	increase in relative change in compliance (human subjects)
COC(=O)[C@@H](N)CCCNC(=N)N[N+](=O)[O-] [L-NAME]	greatly attenuates this response; also recorded: greatly attenuated		
O=[N+]([O-])OCC(CO[N+](=O)[O-])O[N+](=O)[O-] [NG, nitroglycerin]		more than 30%	more than 30%
